# Results taken from patent US20260250257A1, “ANTIBACTERIAL AND SYNERGISTIC ACTIVE COMPOUND AND USE THEREOF” (EAST CHINA UNIVERSITY OF SCIENCE AND TECHNOLOGY, priority 2023, published 2026).
# Legend:
# Type in all cases: cell-based
# [1] = test system: ATCC25922 strain (Escherichia coli); assay: Broth microdilution, antibacterial activity of the compound used alone; conditions: for MIC: read-out: Antibacterial activity of the compound of Formula I, ATCC25922
# Excerpt: (§1) The broth microdilution method was used to test the antibacterial effects of the compounds of the present invention against various Gram-negative bacterial strains when used alone.
# [2] = test system: ATCC13883 strain (Klebsiella pneumoniae); assay: as above; conditions: for MIC: read-out: Antibacterial activity of the compound of Formula I, ATCC13883
# Excerpt: as §1
# [3] = test system: ATCC19606 strain (Acinetobacter baumannii); assay: as above; conditions: for MIC: read-out: Antibacterial activity of the compound of Formula I, ATCC19606
# Excerpt: as §1
# [4] = test system: ATCC9027 strain (Pseudomonas aeruginosa); assay: as above; conditions: for MIC: read-out: Antibacterial activity of the compound of Formula I, ATCC9027
# Excerpt: as §1
# [5] = test system: ATCC25922 strain (Escherichia coli); assay: Checkerboard antibacterial synergistic activity test with polymyxin E (FIC); design: key: FIC≤0.5 synergy; 0.5–1 additive; 1–2 indifferent; ≥2 antagonism; conditions: combined with polymyxin E
# Procedure: (§2) Polymyxin E was diluted in sterile MH broth medium to concentrations of 16, 8, 4, 2, 1, 0.5, 0.25, 0.125, 0.0625, 0.031, and 0.015 μg/ml, and the drug to be tested was diluted to concentrations of 256, 128, 64, 32, 16, 8, and 4 μg/ml. According to the checkerboard method, combinations of the drug to be tested and polymyxin at different concentrations in ascending order were placed into a 96-well plate, and corresponding blank control groups were set up. 50 μl of the drug solution was added to each well, then 100 μl of bacterial liquid was added, and incubated in a 37° C. incubator for 16 hours. […] Calculation and judgment criteria:
# (§3) Fractional Inhibitory Concentration (FIC) is calculated as follows: […]
# (§4) Judgment criteria: FIC≤0.5: synergistic effect; 0.5<FIC<1: additive effect; 1<FIC<2: indifferent effect; FIC≥2: antagonistic effect.
# (§5) In the table: ATCC19606 strain is Acinetobacter baumannii, ATCC25922 strain is Escherichia coli, ATCC13883 strain is Klebsiella pneumoniae, ATCC9027 strain is Pseudomonas aeruginosa. All four strains were purchased from ATCC.
# [6] = test system: ATCC13883 strain (Klebsiella pneumoniae); assay: as above; design: key: FIC≤0.5 synergy; 0.5–1 additive; 1–2 indifferent; ≥2 antagonism; conditions: combined with polymyxin E
# Procedure: as §2, §3, §4, §5
# [7] = test system: ATCC19606 strain (Acinetobacter baumannii); assay: as above; design: key: FIC≤0.5 synergy; 0.5–1 additive; 1–2 indifferent; ≥2 antagonism; conditions: combined with polymyxin E
# Procedure: as §2, §3, §4, §5
# [8] = test system: ATCC9027 strain (Pseudomonas aeruginosa); assay: as above; design: key: FIC≤0.5 synergy; 0.5–1 additive; 1–2 indifferent; ≥2 antagonism; conditions: combined with polymyxin E
# Procedure: as §2, §3, §4, §5
Structure (SMILES),MIC [1],MIC [2],MIC [3],MIC [4],Synergistic activity (FIC value) ATCC25922 [5],Synergistic activity (FIC value) ATCC13883 [6],Synergistic activity (FIC value) ATCC19606 [7],Synergistic activity (FIC value) ATCC9027 [8],"Antibacterial activity of the compound of Formula I, ATCC25922 [1]","Antibacterial activity of the compound of Formula I, ATCC13883 [2]","Antibacterial activity of the compound of Formula I, ATCC19606 [3]","Antibacterial activity of the compound of Formula I, ATCC9027 [4]"
"NC(N)=Nc1nc(-c2ccccc2Oc2ccccc2)cs1 [Compound I-1, 2-(4-(2-phenoxyphenyl)thiazol-2-yl)guanidine]",256 µg/mL,256 µg/mL,256 µg/mL,256 µg/mL,1.25,0.53,1.25,0.52,–,–,–,–
NC(N)=Nc1nc(-c2cccc(Oc3ccccc3)c2)cs1 [Compound I-2],256 µg/mL,256 µg/mL,256 µg/mL,256 µg/mL,0.51,0.75,0.26,0.53,–,–,–,–
NC(N)=Nc1nc(-c2ccc(Oc3ccccc3)cc2)cs1 [Compound I-3],–,–,–,–,0.5,1.25,1.25,1.25,256 µg/mL,256 µg/mL,256 µg/mL,256 µg/mL
COc1ccccc1-c1csc(N=C(N)N)n1 [Compound I-4],–,–,–,–,0.5,1.25,1.25,1.25,256 µg/mL,256 µg/mL,256 µg/mL,256 µg/mL
COc1cccc(-c2csc(N=C(N)N)n2)c1 [Compound I-5],–,–,–,–,1.25,1.25,1.25,1.25,256 µg/mL,256 µg/mL,256 µg/mL,256 µg/mL
COc1ccc(-c2csc(N=C(N)N)n2)cc1 [Compound I-6],–,–,–,–,0.5,1.25,0.75,1.25,256 µg/mL,256 µg/mL,256 µg/mL,256 µg/mL
NC(N)=Nc1nc(-c2ccccc2OCc2ccccc2)cs1 [Compound I-7],–,–,–,–,0.51,0.51,0.16,0.75,256 µg/mL,256 µg/mL,256 µg/mL,256 µg/mL
NC(N)=Nc1nc(-c2cccc(OCc3ccccc3)c2)cs1 [Compound I-8],256 µg/mL,256 µg/mL,256 µg/mL,128 µg/mL,1.25,0.53,0.25,0.53,–,–,–,–
NC(N)=Nc1nc(-c2ccc(OCc3ccccc3)cc2)cs1 [Compound I-9],–,–,–,–,0.26,0.16,0.13,0.31,256 µg/mL,256 µg/mL,256 µg/mL,256 µg/mL
CC(C)(C)c1ccccc1-c1coc(N=C(N)N)n1 [Compound I-10],–,–,–,–,0.5,1.25,1.25,1.25,256 µg/mL,256 µg/mL,256 µg/mL,256 µg/mL
CC(C)(C)c1cccc(-c2c[se]c(N=C(N)N)n2)c1 [Compound I-11],–,–,–,–,0.5,0.25,0.3,0.63,256 µg/mL,256 µg/mL,256 µg/mL,256 µg/mL
CC(C)(C)c1ccc(-c2c[nH]c(N=C(N)N)n2)cc1 [Compound I-12],–,–,–,–,0.5,0.25,0.28,0.63,256 µg/mL,256 µg/mL,256 µg/mL,256 µg/mL
CC(C)(C)c1cc(-c2csc(N=C(N)N)n2)cc(C(C)(C)C)c1 [Compound I-13],–,–,–,–,0.39,0.33,0.15,0.62,256 µg/mL,256 µg/mL,256 µg/mL,256 µg/mL
CC(C)c1ccccc1-c1coc(N=C(N)N)n1 [Compound I-15],–,–,–,–,0.5,1.25,1.25,1.25,256 µg/mL,256 µg/mL,256 µg/mL,256 µg/mL
CC(C)c1cccc(-c2c[nH]c(N=C(N)N)n2)c1 [Compound I-16],–,–,–,–,0.5,0.25,0.3,0.63,256 µg/mL,256 µg/mL,256 µg/mL,256 µg/mL
CC(C)c1ccc(-c2csc(N=C(N)N)n2)cc1 [Compound I-17],–,–,–,–,0.5,0.25,0.28,0.63,256 µg/mL,256 µg/mL,256 µg/mL,256 µg/mL
CC(C)c1cc(-c2c[se]c(N=C(N)N)n2)cc(C(C)C)c1 [Compound I-18],–,–,–,–,0.39,0.33,0.15,0.62,256 µg/mL,256 µg/mL,256 µg/mL,256 µg/mL
CC(C)c1cc(-c2coc(N=C(N)N)n2)cc(C(C)C)c1O [Compound I-19],–,–,–,–,0.38,0.31,0.12,0.31,256 µg/mL,256 µg/mL,256 µg/mL,256 µg/mL
